Tests used:
Experiment in all cases: relative viability (nuclei count vs DMSO), 5 days (fraction); higher = more cells survive
Venetoclax + Tozasertib = compound: CC1(C)CCC(CN2CCN(c3ccc(C(=O)NS(=O)(=O)c4ccc(NCC5CCOCC5)c([N+](=O)[O-])c4)c(Oc4cnc5[nH]ccc5c4)c3)CC2)=C(c2ccc(Cl)cc2)C1 [Venetoclax] + Cc1cc(Nc2cc(N3CCN(C)CC3)nc(Sc3ccc(NC(=O)C4CC4)cc3)n2)n[nH]1 [Tozasertib] (partner 0.1 µM)
Summary of the method: (§1)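 A single step with final 0.05% Triton X-100, 1% formaldehyde and 1 ug/ml Hoechst fixed the cells and stained nuclei 5 days after treatment. Lung cancer cell lines in 1536-well plates had been treated by pin tool the day after seeding with one drug alone or a fixed anchor-drug dose plus five library-drug doses (not always all listed) in √10 steps, and nuclei were counted on 4× images. Relative viability is the ratio of nuclei in treated wells to nuclei in vehicle wells, taken as the median of duplicate plates.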

Venetoclax + AZD7762 = compound: CC1(C)CCC(CN2CCN(c3ccc(C(=O)NS(=O)(=O)c4ccc(NCC5CCOCC5)c([N+](=O)[O-])c4)c(Oc4cnc5[nH]ccc5c4)c3)CC2)=C(c2ccc(Cl)cc2)C1 [Venetoclax] + NC(=O)Nc1cc(-c2cccc(F)c2)sc1C(=O)N[C@H]1CCCNC1 [AZD7762] (partner 0.2 µM)
Summary of the method: as §1

Selumetinib + Phenformin = compound: Cn1cnc2c(F)c(Nc3ccc(Br)cc3Cl)c(C(=O)NOCCO)cc21 [Selumetinib] + N=C(N)NC(=N)NCCc1ccccc1 [Phenformin] (partner 250 µM)
Summary of the method: as §1

Venetoclax + Pemetrexed = compound: CC1(C)CCC(CN2CCN(c3ccc(C(=O)NS(=O)(=O)c4ccc(NCC5CCOCC5)c([N+](=O)[O-])c4)c(Oc4cnc5[nH]ccc5c4)c3)CC2)=C(c2ccc(Cl)cc2)C1 [Venetoclax] + Nc1nc2[nH]cc(CCc3ccc(C(=O)N[C@@H](CCC(=O)O)C(=O)O)cc3)c2c(=O)[nH]1 [Pemetrexed] (partner 0.2 µM)
Summary of the method: as §1

Row | Cell Line | relative viability (Venetoclax + Tozasertib; first compound 0.01 µM) | relative viability (Venetoclax + Tozasertib; first compound 0.03162 µM) | relative viability (Venetoclax + Tozasertib; first compound 0.1 µM) | relative viability (Venetoclax + Tozasertib; first compound 0.3162 µM) | relative viability (Venetoclax + Tozasertib; first compound 1 µM) | relative viability (Venetoclax + AZD7762; first compound 0.01 µM) | relative viability (Venetoclax + AZD7762; first compound 0.03162 µM) | relative viability (Venetoclax + AZD7762; first compound 0.1 µM) | relative viability (Venetoclax + AZD7762; first compound 0.3162 µM) | relative viability (Venetoclax + AZD7762; first compound 1 µM) | relative viability (Selumetinib + Phenformin; first compound 0.02 µM) | relative viability (Selumetinib + Phenformin; first compound 0.06325 µM) | relative viability (Selumetinib + Phenformin; first compound 0.2 µM) | relative viability (Selumetinib + Phenformin; first compound 0.6325 µM) | relative viability (Venetoclax + Pemetrexed; first compound 0.01 µM) | relative viability (Venetoclax + Pemetrexed; first compound 0.03162 µM) | relative viability (Venetoclax + Pemetrexed; first compound 0.1 µM) | relative viability (Venetoclax + Pemetrexed; first compound 0.3162 µM) | relative viability (Venetoclax + Pemetrexed; first compound 1 µM)
1 | HCC-827 | 0.417 | 0.413 | 0.4 | 0.416 | 0.385 | 0.27 | 0.258 | 0.302 | 0.224 | 0.183 | 0.4 | 0.4 | 0.42 | 0.409 | 0.239 | 0.289 | 0.25 | 0.269 | 0.28
2 | HOP-62 | 0.414 | 0.321 | 0.409 | 0.31 | 0.313 | 0.486 | 0.841 | 0.522 | 0.726 | 0.494 | 0.753 | 0.657 | 0.624 | 0.465 | 0.356 | 0.335 | 0.287 | 0.313 | 0.355
3 | LC-2-ad | 0.418 | 0.398 | 0.425 | 0.535 | 0.433 | 0.992 | 0.856 | 0.809 | 0.845 | 0.802 | 0.557 | 0.544 | 0.532 | 0.575 | 0.283 | 0.27 | 0.256 | 0.262 | 0.259
4 | LCLC-97TM1 | 0.302 | 0.27 | 0.207 | 0.185 | 0.202 | 0.323 | 0.26 | 0.263 | 0.266 | 0.25 | 0.44 | 0.43 | 0.387 | 0.399 | 0.165 | 0.182 | 0.167 | 0.163 | 0.153
5 | LCLC-103H | 0.575 | 0.396 | 0.36 | 0.51 | 0.454 | 0.837 | 0.737 | 0.809 | 0.817 | 0.734 | 0.329 | 0.326 | 0.293 | 0.337 | 0.447 | 0.432 | 0.448 | 0.43 | 0.447
6 | LK-2 | 0.154 | 0.18 | 0.19 | 0.18 | 0.192 | 0.634 | 0.673 | 0.461 | 0.356 | 0.381 | 0.561 | 0.576 | 0.539 | 0.477 | 0.331 | 0.381 | 0.255 | 0.249 | 0.227
7 | NCI-H520 | 0.413 | 0.406 | 0.434 | 0.443 | 0.403 | – | – | – | – | – | 0.616 | 0.659 | 0.671 | 0.784 | 0.781 | 0.73 | – | 0.626 | 0.646
8 | NCI-H661 | 0.353 | 0.335 | 0.313 | 0.345 | 0.333 | – | – | – | – | – | 0.261 | 0.291 | 0.272 | 0.246 | 0.933 | 0.922 | 0.861 | 0.897 | 0.901
9 | NCI-H727 | 0.765 | 0.61 | 0.496 | 0.58 | 0.58 | 0.592 | 0.769 | 0.423 | 0.648 | 0.604 | 0.455 | 0.381 | 0.375 | 0.355 | – | – | – | – | –

Reference: the supplement of paper PMC10307832
